Test results published in patent US8293732B2, “Antibacterial quinoline derivatives” (Janssen Pharmaceutica N.V., priority 2006, dated 2012).
Converted amounts (≈) assume the structure as drawn.

Columns and labels:
Type in all cases: cell-based
M. Smegmatis (ATCC607) = experiment: In-vitro anti-bacterial activity against strain M. Smegmatis ATCC607; settings: 90% inhibitory concentration for bacterial growth, 37° C., Alamar Blue fluorescence; for IC90 values MSM 1 ATCC607: 48 hours; for IC90: Mycolicibacterium smegmatis, ATCC607, 48 h, read-out: IC90 values MSM 1 ATCC607
Description: Flat-bottom, sterile 96-well plastic microtiter plates were filled with 180 μl of sterile deionized water, supplemented with 0.25% BSA. Subsequently, stock solutions (7.8× final test concentration) of compounds were added in 45 μl volumes to a series of duplicate wells in column 2 so as to allow evaluation of their effects on bacterial growth. Serial five-fold dilutions (45 μl in 180 μl) were made directly in the microtiter plates from column 2 to 11 using a customised robot system (Zymark Corp., Hopkinton, Mass.). Pipette tips were changed after every 3 dilutions to minimize pipetting errors with high hydrophobic compounds. Untreated control samples with (column 1) and without (column 12) inoculum were included in each microtiter plate. Approximately 250 CFU per well of bacteria inoculum, in a volume of 100 μl in 2.8× Mueller-Hinton broth medium, was added to the rows A to H, except column 12. The same volume of broth medium without inoculum was added to column 12 in row A to H. The cultures were incubated at 37° C. for 48 hours in a humidified 5% CO2 atmosphere (incubator with open air valve and continuous ventilation). At the end of incubation, two days after inoculation, the bacterial growth was quantitated fluorometrically. Therefore Alamar Blue (10×) was added to all wells in a volume of 20 μl and plates were incubated for another 2 hours at […]
The fluorescence was read in a computer-controlled fluorometer (Cytofluor, Biosearch) at an excitation wavelength of 530 nm and an emission wavelength of 590 nm (gain 30).
(§1) STA 29213 means Staphylococcus aureus (ATCC29213); SPN 6305 means Streptococcus pneumoniae (ATCC6305); MSM 607 means M. Smegmatis (ATCC607); ATCC means […].

[1] = system: Streptococcus pneumoniae (ATCC6305); experiment: In-vitro anti-bacterial microtitre plate assay, IC90 determination (SPN 1 6305); settings: 90% inhibitory concentration for bacterial growth, 37° C., resazurin fluorescence; for IC90 values SPN 1 6305: 24 hours; for IC90: Streptococcus pneumoniae, ATCC6305, 24 h
Description: (§2) The bacteria used in this study were grown overnight in flasks containing 100 ml Mueller-Hinton Broth (Becton Dickinson—cat. no. 275730) in sterile de-ionized water, with shaking, at 37° C. Stocks (0.5 ml/tube) were stored at −70° C. until use. Bacteria titrations were performed in microtiter plates to detect the TCID50, in which the TCID50 represents the dilution that gives rise to bacterial growth in 50% of inoculated cultures.
(§3) In general, an inoculum level of approximately 100 TCID50 was used for susceptibility testing.
(§4) Flat-bottom, sterile 96-well plastic microtiter plates were filled with 180 μl of sterile deionized water, supplemented with 0.25% BSA. Subsequently, stock solutions (7.8× final test concentration) of compounds were added in 45 μl volumes in column 2. Serial five-fold dilutions (45 μl in 180 μl) were made directly in the microtiter plates from column 2 to reach column 11. Untreated control samples with (column 1) and without (column 12) inoculum were included in each microtiter plate. Depending on the bacteria type, approximately 10 to 60 CFU per well of bacteria inoculum (100 TCID50), in a volume of 100 μl in 2.8× Mueller-Hinton broth medium, was added to the rows A to H, except column 12. The same volume of broth medium without inoculum was added to column 12 in row A to H. The cultures were incubated at 37° C. for 24 hours under a normal atmosphere (incubator with open air valve and continuous ventilation). At the end of incubation, one day after inoculation, the bacterial growth was quantitated fluorometrically. Therefore resazurin (0.6 mg/ml) was added in a volume of 20 μl to all wells 3 hours after inoculation, and the plates were re-incubated overnight. A change in colour from blue to pink indicated the growth of bacteria. The fluorescence was read in a computer-controlled fluorometer (Cytofluor Biosearch) at an excitation wavelength of 530 nm and an emission wavelength of 590 nm. The % growth inhibition achieved by the compounds was calculated according to standard methods.
as §1

[2] = system: Staphylococcus aureus (ATCC29213); experiment: In-vitro anti-bacterial microtitre plate assay, IC90 determination (STA 1 B29213); settings: 90% inhibitory concentration for bacterial growth, 37° C., resazurin fluorescence; for IC90 values STA 1 B29213: 24 hours; for IC90: Staphylococcus aureus, ATCC29213, 24 h
Description: as §2, §3, §4, §1

| SMILES | IC90 values MSM 1 ATCC607 (M. Smegmatis (ATCC607)) [µg/mL] | IC90 values SPN 1 6305 [1] [µg/mL] | IC90 values STA 1 B29213 [2] [µg/mL] | IC90 (M. Smegmatis (ATCC607)) [µg/mL] | IC90 [2] [µg/mL] | IC90 [1] [µg/mL] |
| --- | --- | --- | --- | --- | --- | --- |
| COc1nc2ccc(Br)cc2cc1C(c1ccccc1)C(O)(CCCCN1CCN(C)CC1)COc1ccc(C)cc1 (single isomer, unassigned) [Compound 23] | 2.0 (≈ 3.16 µM) | 2.0 (≈ 3.16 µM) | 2.0 (≈ 3.16 µM) | – | – | – |
| COc1nc2ccc(Br)cc2cc1C(c1ccccc1)C(O)(CCCCCN(C)C)c1cccc(-c2ccccc2)c1 (single isomer, unassigned) [Compound 36] | 1.76 (≈ 2.82 µM) | – | 1.97 (≈ 3.16 µM) | – | – | – |
| COc1nc2ccc(Br)cc2cc1C(c1ccccc1)C(O)(CCCCN(C)C)c1cccc(/C=C/c2ccccc2)c1 (stereo not drawn) [Compound 45] | 2.01 (≈ 3.16 µM) | – | 2.01 (≈ 3.16 µM) | – | – | – |
| COc1nc2ccc(Br)cc2cc1C(c1ccoc1)C(O)(CCc1ccc(F)cc1)CCN(C)C (single isomer, unassigned) [Compound 54] | 1.92 (≈ 3.55 µM) | – | 8.58 (≈ 15.8 µM) | – | – | – |
| COc1nc2ccccc2cc1C(c1ccc(-c2cccs2)cc1)C(O)(CCCCN(C)C)c1ccc2ccccc2c1 (single isomer, unassigned) [Compound 15] | – | 2.3 (≈ 3.92 µM) | 1.9 (≈ 3.24 µM) | – | – | – |
| COc1nc2ccc(Br)cc2cc1C(c1ccccc1)C(O)(CCCCN(C)C)c1cccc(-c2ccc(Cl)cc2)c1 (single isomer, unassigned) [Compound 34] | 1.29 (≈ 2 µM) | 0.72 (≈ 1.12 µM) | 0.91 (≈ 1.41 µM) | – | – | – |
| COc1nc2ccc(Br)cc2cc1C(c1ccccc1)C(O)(CCCCN1CCCCC1)COCc1ccccc1 (single isomer, unassigned) [Compound 25] | 2.0 (≈ 3.24 µM) | 2.0 (≈ 3.24 µM) | 2.5 (≈ 4.05 µM) | – | – | – |
| COc1nc2ccc(Br)cc2cc1C(c1ccccc1)C(O)(CCCCN(C)C)c1cccc(-c2ccccc2)c1 (single isomer, unassigned) [Compound 31] | – | 0.86 (≈ 1.41 µM) | – | 1.93 (≈ 3.17 µM) | 1.93 (≈ 3.17 µM) | – |
| COc1nc2ccccc2cc1C(c1cccc(-c2ccncc2)c1)C(O)(CCCCN(C)C)c1ccc2ccccc2c1 (single isomer, unassigned) [Compound 9] | 1.5 (≈ 2.58 µM) | 1.8 (≈ 3.09 µM) | 1.8 (≈ 3.09 µM) | – | – | – |
| COc1nc2ccc(Br)cc2cc1C(c1ccccc1)C(O)(CCCCN(C)C)c1cccc(/C=C/c2ccccc2)c1 (stereo not drawn) [Compound 46] | 2.01 (≈ 3.16 µM) | – | 2.01 (≈ 3.16 µM) | – | – | – |
| COc1nc2ccc(Br)cc2cc1C(c1ccccc1)C(O)(CCCCN(C)C)c1cccc(/C=C/c2ccccc2)c1 (stereo not drawn) [Compound 47] | 2.01 (≈ 3.16 µM) | – | 2.01 (≈ 3.16 µM) | – | – | – |
| COc1nc2ccccc2cc1C(c1ccc(-c2ccncc2)cc1)C(O)(CCCCN(C)C)c1ccc2ccccc2c1 (single isomer, unassigned) [Compound 43] | 0.37 (≈ 0.636 µM) | – | 4.60 (≈ 7.91 µM) | – | – | – |
| COc1nc2ccc(Br)cc2cc1C(c1ccccc1)C(O)(CCCCN(C)C)c1cccc(-c2ccccc2)c1 (single isomer, unassigned) [Compound 32] | 0.97 (≈ 1.59 µM) | 1.93 (≈ 3.17 µM) | 1.93 (≈ 3.17 µM) | – | – | – |
| COc1nc2ccc(Br)cc2cc1C(c1ccccc1)C(O)(CCCCN(C)C)c1cccc(-c2ccc(Cl)cc2)c1 (single isomer, unassigned) [Compound 33] | – | 1.82 (≈ 2.83 µM) | 2.04 (≈ 3.17 µM) | 2.04 (≈ 3.17 µM) | – | – |
| COc1nc2ccccc2cc1C(c1ccc(-c2cccnc2)cc1)C(O)(CCCCN(C)C)c1ccc2ccccc2c1 (single isomer, unassigned) [Compound 7] | – | – | – | 1.8 (≈ 3.09 µM) | 1.8 (≈ 3.09 µM) | 1.8 (≈ 3.09 µM) |
| COc1nc2ccc(Br)cc2cc1C(c1ccccc1)C(O)(CCCCN(C)C)c1cccc(-c2ccc(C)cc2)c1 (single isomer, unassigned) [Compound 40] | 7.85 (≈ 12.6 µM) | – | – | – | 1.97 (≈ 3.16 µM) | 1.97 (≈ 3.16 µM) |
| COc1ccc(-c2cccc(C(O)(CCCCN(C)C)C(c3ccccc3)c3cc4cc(Br)ccc4nc3OC)c2)cc1 (single isomer, unassigned) [Compound 39] | 2.02 (≈ 3.16 µM) | 2.02 (≈ 3.16 µM) | 2.02 (≈ 3.16 µM) | – | – | – |
| COc1nc2ccc(Br)cc2cc1C(c1ccoc1)C(O)(CCN(C)C)c1ccccc1 (single isomer, unassigned) [Compound 51] | 1.57 (≈ 3.17 µM) | – | – | – | 39.4 (≈ 79.4 µM) | – |
| COc1nc2ccc(Br)cc2cc1C(c1ccc(Cl)cc1)C(O)(CCCCN1CCN(C)CC1)COc1ccccc1 (single isomer, unassigned) [Compound 21] | 2.1 (≈ 3.22 µM) | 2.6 (≈ 3.98 µM) | 2.1 (≈ 3.22 µM) | – | – | – |
| COc1nc2ccc(Br)cc2cc1C(c1ccc(Cl)cc1)C(O)(CCCCN(C)C)COc1ccccc1 (single isomer, unassigned) [Compound 3] | – | 11.9 (≈ 19.9 µM) | 9.5 (≈ 15.9 µM) | 1.7 (≈ 2.84 µM) | – | – |
| COc1nc2ccc(Br)cc2cc1C(c1ccccc1)C(O)(CCCCN(C)C)c1cccc(/C=C/c2ccccc2)c1 (single isomer, unassigned) [Compound 41] | 0.40 (≈ 0.629 µM) | 2.01 (≈ 3.16 µM) | – | – | 2.01 (≈ 3.16 µM) | – |
| COc1nc2ccc(Br)cc2cc1C(c1ccccc1)C(O)(CCCCN1CCN(C)CC1)COc1ccccc1 (single isomer, unassigned) [Compound 19] | 2.0 (≈ 3.23 µM) | 2.5 (≈ 4.04 µM) | 4.4 (≈ 7.11 µM) | – | – | – |
| COc1nc2ccc(Br)cc2cc1C(c1ccccc1)C(O)(CCCCCN(C)C)c1cccc(-c2ccccc2)c1 (single isomer, unassigned) [Compound 35] | – | – | – | 1.76 (≈ 2.82 µM) | 1.97 (≈ 3.16 µM) | – |
| COc1nc2ccc(Br)cc2cc1C(c1ccoc1)C(O)(CCN(C)C)c1ccccc1 (single isomer, unassigned) [Compound 52] | 0.06 (≈ 0.121 µM) | – | 49.54 (≈ 100 µM) | – | – | – |
| COc1nc2ccccc2cc1C(c1ccc(-c2cnc3ccccc3c2)cc1)C(O)(CCCCN(C)C)c1ccc2ccccc2c1 (single isomer, unassigned) [Compound 49] | 2.00 (≈ 3.17 µM) | – | 2.00 (≈ 3.17 µM) | – | – | – |
| COc1nc2ccc(Br)cc2cc1C(c1ccccc1)C(O)(CCCCN(C)C)c1cccc(-c2ccc(C)cc2)c1 (single isomer, unassigned) [Compound 42] | 0.79 (≈ 1.27 µM) | – | 2.21 (≈ 3.54 µM) | – | – | – |
| COc1nc2ccc(Br)cc2cc1C(c1ccccc1)C(O)(CCCCCN(C)C)c1cccc(/C=C/c2ccccc2)c1 (single isomer, unassigned) [Compound 37] | – | – | – | 1.63 (≈ 2.51 µM) | 2.05 (≈ 3.16 µM) | – |
| COc1nc2ccc(Br)cc2cc1C(c1ccccc1)C(O)(CCCCN(C)C)c1cccc(/C=C/c2ccccc2)c1 (stereo not drawn) [Compound 44] | 0.90 (≈ 1.42 µM) | – | – | – | 1.79 (≈ 2.82 µM) | – |
| COc1nc2ccccc2cc1C(c1ccc(-c2cnc3ccccc3c2)cc1)C(O)(CCCCN(C)C)c1ccc2ccccc2c1 (single isomer, unassigned) [Compound 50] | 22.42 (≈ 35.5 µM) | – | 25.15 (≈ 39.8 µM) | – | – | – |
